Results: EP0914370B1, “PROCESS FOR PRODUCING CLOSED CELL THERMOPLASTIC FOAMS CONTAINING HFC-134” (E.I. DU PONT DE NEMOURS AND COMPANY, priority 1996, dated 1998)
Marks after values point to notes of the source that are not given here.

Tests used:
[1] = Solubility and solution pressure of blowing agents in Quantum "Petrothene" grade low density polyethylene, same procedure; type: physicochemical
[2] = Solubility and solution pressure of blowing agents in polystyrene resin, calculated with the Flory-Huggins equation; type: physicochemical; conditions: for WT% Blowing Agent Dissolves in Resin: atmospheric pressure (14.7 psia, 1 bar)
Description: Certain aspects of the invention are illustrated by the Figures. The accompanying figures illustrate the suitability of HFC-134 as blowing agent for producing polystyrenic foam bodies, the data presented therein were obtained with the aid of the well-known Flory-Huggins equation (Flory, P.J.: "Principles of Polymer Chemistry"; Cornell University Press, Ithaca, N.Y.), discussed below.
These equilibrium pressures relate to the point in the extrusion process where blowing agent is mixed with resin; foaming cannot occur at these pressures.
The data presented in Figures 3-6 were determined through use of the Flory-Huggins equation for phase equilibria in polymer solutions. This equation uses values for the following parameters [(1) - (4)], which were obtained as follows: (1) liquid densities of the blowing agents, g/cc, were derived by using standard methods, drawing a straight line through the liquid density data (based on National Institute of Standards and Technology, NIST, experimental data; with equations based on the Modified Benedict-Webb-Rubin, MBWR, equation of state) from -50°C to 50°C and calculating the liquid density as a function of temperature. The density (d) equation recites: d=AT+B, wherein A is the slope of the line, B is the constant of the line, and T temperature (°C). The liquid densities are (grams/cubic centimeter, g/cm^3):
(2) The densities of the superheated vapors of the blowing agents, which are tabulated below, were calculated from the known vapor data of their thermodynamic properties (based on National Institute of Standards and Technology, NIST, experimental data; with equations based on the Modified Benedict-Webb-Rubin, MBWR, equation of state).
(3) The activity coefficients for the blowing agents that are tabulated below:
These coefficients were determined by dividing the experimental blowing agent partial pressure by the saturated vapor pressure at that temperature. (4) The interaction parameters, X1, were determined at four temperatures, and are presented graphically as a function of temperature in Figure 2 by means of the following equation and equation constants: X1 = A/T + B [formula] (where T = °K = °C + 273.2)
Such data are presented graphically in Figures 3, 4, 5 and 6. Figures 3-6 are plots of "weight% Blowing Agent Dissolved in Resin vs. Pressure of Solution" as a function of temperature. Representative solubilities of the blowing agents in the given resin at various extrusion process temperatures at atmospheric pressure (14.7 psia, 1 bar), are listed below in Table 1: Table 1

[3] = low density polyethylene, 25°C, 1 Atm
[4] = low density polyethylene, 180°C, 1 Atm
[5] = low density polyethylene, Extruder Temp 180°C
[6] = polystyrene resin, 25°C (footnote *)

Row | Solubility (wt % HFC) at 1 Atm of HFC Pres. 25°C [1, 3] | Solubility (wt % HFC) at 1 Atm of HFC Pres. Ext Temp [1, 4] | Limiting Solubility (wt % HFC) [1, 5] | Limiting Solubility (wt % HFC) [2] | Solubility (wt % HFC) at 1 Atm of HFC Pres. 25°C [2] | Solubility (wt % HFC) at 1 Atm of HFC Pres. Ext Temp [2] | WT% Blowing Agent Dissolves in Resin ([2]; polystyrene resin, 60°C) | WT% Blowing Agent Dissolves in Resin ([2]; polystyrene resin, 100°C) | WT% Blowing Agent Dissolves in Resin ([2]; polystyrene resin, 140°C) | WT% Blowing Agent Dissolves in Resin ([2]; polystyrene resin, 180°C) | WT% Blowing Agent Dissolves in Resin ([2]; polystyrene resin, 200°C) | Solubility (wt % HFC) at 1 Atm of HFC Pres. 25°C ([2]; polystyrene resin, 25°C, 1 Atm) | Solubility (wt % HFC) at 1 Atm of HFC Pres. Ext Temp ([2]; polystyrene resin, 180°C, 1 Atm) | Limiting Solubility (wt % HFC) ([2]; polystyrene resin, Extruder Temp 180°C) | WT% Blowing Agent Dissolves in Resin ([2]; polystyrene resin, 20°C) | SMILES | Limiting Solubility (wt % HFC) [1] | Solubility (wt % HFC) at 1 Atm of HFC Pres. 25°C [1] | Solubility (wt % HFC) at 1 Atm of HFC Pres. Ext Temp [1] | HFC-134/HFC-134a solubility ratio [2] | WT% Blowing Agent Dissolves in Resin [2, 6]
1 | 2.01 wt % HFC | 0.38 wt % HFC | 78 wt % HFC |  |  |  |  |  |  |  |  |  |  |  |  | FC(F)(Cl)C(F)(F)Cl [HCFC-114, 1,2-dichloro-1,1,2,2-tetrafluoroethane] |  |  |  |  | 
2 | 0.22 wt % HFC | 0.14 wt % HFC | 74 wt % HFC |  |  |  | 0.2 WT% | 0.19 WT% | 0.15 WT% | 0.1 WT% | 0.08 WT% | 0.16 wt % HFC | 0.11 wt % HFC | 69 wt % HFC |  | FCC(F)(F)F [HFC-134a, 1,1,1,2-tetrafluoroethane] |  |  |  |  | 0.16* WT%
3 |  |  |  | 69 wt % HFC | 0.04 wt % HFC | 0.07 wt % HFC | 0.08 WT% | 0.13 WT% | 0.1 WT% | 0.07 WT% | 0.05 WT% |  |  |  | 0.04 WT% | CC(F)(F)F [HFC-143a, 1,1,1-trifluoroethane] |  |  |  |  | 

Second part, the molecule before the results:

Row | SMILES | Solubility (wt % HFC) at 1 Atm of HFC Pres. 25°C [1, 3] | Solubility (wt % HFC) at 1 Atm of HFC Pres. Ext Temp [1, 4] | Limiting Solubility (wt % HFC) [1, 5] | Limiting Solubility (wt % HFC) [2] | Solubility (wt % HFC) at 1 Atm of HFC Pres. 25°C [2] | Solubility (wt % HFC) at 1 Atm of HFC Pres. Ext Temp [2] | WT% Blowing Agent Dissolves in Resin ([2]; polystyrene resin, 60°C) | WT% Blowing Agent Dissolves in Resin ([2]; polystyrene resin, 100°C) | WT% Blowing Agent Dissolves in Resin ([2]; polystyrene resin, 140°C) | WT% Blowing Agent Dissolves in Resin ([2]; polystyrene resin, 180°C) | WT% Blowing Agent Dissolves in Resin ([2]; polystyrene resin, 200°C) | Solubility (wt % HFC) at 1 Atm of HFC Pres. 25°C ([2]; polystyrene resin, 25°C, 1 Atm) | Solubility (wt % HFC) at 1 Atm of HFC Pres. Ext Temp ([2]; polystyrene resin, 180°C, 1 Atm) | Limiting Solubility (wt % HFC) ([2]; polystyrene resin, Extruder Temp 180°C) | WT% Blowing Agent Dissolves in Resin ([2]; polystyrene resin, 20°C) | Limiting Solubility (wt % HFC) [1] | Solubility (wt % HFC) at 1 Atm of HFC Pres. 25°C [1] | Solubility (wt % HFC) at 1 Atm of HFC Pres. Ext Temp [1] | HFC-134/HFC-134a solubility ratio [2] | WT% Blowing Agent Dissolves in Resin [2, 6]
4 | FC(F)C(F)F [HFC-134, 1,1,2,2-tetrafluoroethane] |  |  |  | 81 wt % HFC | 0.54 wt % HFC | 0.2 wt % HFC | 0.5 WT% | 0.4 WT% | 0.3 WT% | 0.2 WT% | 0.15 WT% |  |  |  |  | 81 wt % HFC | 0.64 wt % HFC | 0.20 wt % HFC | about 2/1 | 0.6* WT%
5 | CC(F)F [HFC-152a, 1,1-difluoroethane] |  |  |  | 83 wt % HFC | 0.76 wt % HFC | 0.2 wt % HFC | 0.5 WT% | 0.4 WT% | 0.3 WT% | 0.2 WT% | 0.15 WT% |  |  |  | 0.8 WT% |  |  |  |  | 
6 | CCF [HFC-161, 1-fluoroethane] | 0.22 wt % HFC | 0.24 wt % HFC | 89 wt % HFC |  |  |  |  |  |  |  |  |  |  |  |  |  |  |  |  | 
